“Also recorded” adds a separate entry of the source. Like-named read-outs stand apart in the source and are kept apart here.
How the values were obtained:
subjects with active SLE = experiment: Low dose Edratide therapy, 26-week phase 2 dose-ranging study (Example 2); type: in vivo, human
Excerpt: The study will test about 200 study subjects, in about 50 centres. The study population will include seropositive SLE patients (presence of anti-dsDNA antibodies by FARRzyme immunoassay, titer ≥30 IU, and/or the Crithidia luciliae immunofluorescence test, and/or antinuclear antibodies (ANA) ≥1:160 or 1:80 in which case the Adjudication Committee would review the subject's data at baseline.
The total duration of the study is expected to be 34 weeks: • Screening Phase: <30 days (4 weeks) • Phase 2 double-blind treatment phase: 26 weeks (6 months) • Follow-up phase for safety: 4 weeks
Glucocorticoid dosing: It is highly recommended to initiate tapering from the baseline dose of prednisone/prednisone equivalent on or after week 4, as clinically indicated from doses ≥15 mg/day to ≥7.5 mg/day; tapering could continue until week 18. No changes in dose of prednisone/prednisone equivalent doses are allowed during weeks 19-26, the last 8 weeks of the trial. No specific tapering regimen is required, but to be determined as clinically indicated by the investigator.
Active SLE patients will be screened for up to 30 days prior to the baseline visit (visit 2). Each subject will undergo screening evaluations.
The subjects must meet the following inclusion criteria: • 1.Subjects diagnosed with SLE must have a documented medical history to meet Systemic Lupus International […] (SLICC) classification criteria for SLE, or have accumulated 4 classification criteria (1997 revised) of the American College of Rheumatology (ACR) for SLE prior to first dose. • 2. Subjects with active SLE must have: • a. At least one BILAG-A and/or two BILAG-B's, and • b. SLEDAI score of 6 or higher, excluding serology scores, and be • c. Serologically-positive as defined by 2 positive ANA or anti-dsDNA antibody test results (titer ≥30 IU by FARR radioimmunoassay and/or the Crithidia luciliae immunofluorescence test, and/or ANA 1:160 or 1:80 in which case the adjudication committee would review the subject's data) of which ≥1 test result must be obtained during screening • 3. Subjects must be ≥18 years of age • 4. SLE patients on stable SLE treatment regimen for at least three (3) months • 5. SLE patients on 15 mg of prednisone/prednisone equivalent, which have been stable for at least 14 days • 6. Subjects receiving 2 g/days of Mycophenolate mofetil (MMF) or ≤1440 mg of Myfortic • 7. Women of child-bearing potential must practice a medically acceptable method of contraception. Acceptable methods include: surgical sterilization, IUD, hormonal preparations, or double barrier method (e.g. condom or diaphragm with spermicidal) • 8. Subjects must be willing and able to give written informed consent prior to entering the study. • 9. Subjects must understand the requirements of the study and agree to comply with the study protocol.
The presence of any of the following excludes a subject from study enrollment: • i. Subjects with active Lupus nephritis as defined by a protein to creatinine ratio limit of ≥0.75 and/or active urine sediments defined as hematuria (>10 RBC/HPF) and/or RBC casts. • ii. Subjects with active central nervous system (CNS) Lupus as defined by CNS BILAG-A or BILAG-B. • iii. Subjects with active peripheral nervous system (PNS) Lupus as defined by PNS BILAG-A or BILAG-B. • iv. Subjects receiving >15 mg of glucocorticoid at baseline • v. Subjects having recently received • a. Cyclophosphamide (wash-out period 3 months), • b. Cyclosporine (wash-out period 3 months), • c. Rituximab (wash-out period at least 52 weeks provided that the CD19 count has returned to normal), or • d. Belimumab (wash-out period 6 months) • e. Any investigational drug (wash-out period 5 half-lives of elimination) […]

[1] = tested on: peripheral blood lymphocytes (PBL) of SLE patients; conditions: cited from earlier work
[2] = tested on: mice afflicted with spontaneous or experimental SLE; conditions: mouse, in vivo; cited from earlier work
SLE patients [3] = conditions: cited from earlier work; for incidence of adverse events (AEs), % of the subjects: placebo 75%
[4] = tested on: SLE patients with stable, mild to moderate SLE disease; conditions: cited from earlier work
SLE patients [5] = experiment: PRELUDE Study, phase 2 placebo-controlled efficacy, tolerability and safety study of three doses of Edratide; conditions: for early withdrawal due to AE, % of subjects: placebo 2.3%; for AE incidence: 26 weeks, placebo 79.3%
Protocol: The total study treatment duration was 26 weeks. Scheduled visits were performed at screening, baseline and at weeks 4, 8, 12, 16, 20, 24, and 26 (termination). […] Non-compliance with the tapering down scheme was not regarded as a protocol violation. During the entire course of the study it was allowed to increase the steroid prednisolone dose to up to 60 mg. Use of intravascular/intramuscular steroid was considered a protocol violation. […] PK assessment of CAPTISOL® for all four treatment groups was conducted following the first dose and Weeks 12 and 26 doses. Disease and drug related immunology parameters were tested at baseline and at several time points thereafter.
The main inclusion criteria of this trial were: • SLEDAI 2K score of 6-12 • Stable concomitant medications (prednisone<40 mg, NSAIDs, antimalarials) for at least 1 month prior to baseline.
The co-primary end-points presented in their hierarchical order below were: • Change from baseline to last observed value (LOV) in SLEDAI 2K score (Landmark Analysis.) • Adjusted Mean SLEDAI 2K (AMS). AMS represents the time weighted average of disease activity as measured by SLEDAI 2K score [area under the curve (AUC) of SLEDAI 2K].
Secondary end-points: • BILAG proportion of responders. BILAG responders were defined as: • a. Non Responder (NR)—same BILAG score in Last Observed Value (LOV) as in baseline in all systems or new A or B in at least one system compared to baseline (other systems may improve or deteriorate). • b. Substantial Responder (SR)—all systems at LOV are either C or D/E providing that at least one system was either A or B at baseline • c. […] Mental component Score. Change from baseline to LOV • SF-36 (QoL) Physical component Score—Change from Baseline to LOV • Time Weighted Average (TWA) on cumulative steroids dose with p.o. administration.
Exploratory end-points: • Primary end-point sensitivity analysis to steroid increase (excluding the observations following steroid increase) • Proportions of Zero SLEDAI Score at LOV • Time to Zero SLEDAI Score • BILAG Total Score—Change from Baseline to LOV
Flares Analysis: • Time to medicinal flare • Time to new BILAG A or at least two new B's • Time to new BILAG A or at least two new B's (excluding persistent activity) • Steroid dose (PO)—Change from baseline to LOV • PGA—Physician's Global Assessment

## H-GYYWSWIRQPPGKGEEWIG-OH [Edratide]
Subjects with active SLE; 0.25 mg sc every week
  global assessment of disease activity based on MCID: significant improvement
  mean Lupus-QOL relative to baseline: significant improvement
Subjects with active SLE; 0.25 mg sc every week, Fortin definition
  mean time to first confirmed major SLE flare: significantly increased
Subjects with active SLE; 0.25 mg sc every week, new BILAG A or two new BILAG B
  mean time to first confirmed severe SLE flare: significantly increased
Subjects with active SLE; 0.25 mg sc every week, specific sub-populations of SLE subjects
  disease parameter/s: improvements of disease parameter/s; also recorded: improvement of at least one disease parameter
Subjects with active SLE; 0.25 mg sc every week, week 26
  mean glucocorticoid dose relative to baseline: significant change
  proportion of subjects achieving MCID of one by SLEDAI-2K Responder Index 50: significant proportion
  proportion of subjects achieving a response by composite SLE Responder Index (cSRI): significant proportion
  proportion of subjects achieving response by the SLE Responder Index: significant proportion
  proportion of subjects having all organ systems either BILAG C or BILAG D/E: significant proportion
Subjects with active SLE; 0.25 mg sc every week, week 26, primary outcome
  proportion of subjects with at least one BILAG A or B organ system at baseline dropping by one score without deterioration to BILAG A or B in any other system: significant proportion
Subjects with active SLE; weekly 0.25 mg dose
  reduction of the amount of corticosteroid therapy required to control disease activity of SLE: effective in enabling reduction
[1]
  proliferative response of PBL of SLE patients to the human anti-DNA 16/6Id mAB: inhibit the proliferative response
[2]
  disease manifestations of mice afflicted with spontaneous or experimental SLE: ameliorate disease manifestations
SLE patients [3]; single sc 0.5, 1 or 2.5 mg, any subject except one in the 0.5 mg group (2 to 10 points at Week 4)
  change of total SLEDAI-2K score during the study: No noteworthy change
SLE patients [3]; single sc injection 0.5 mg
  incidence of adverse events (AEs), % of the subjects: 33%
SLE patients [3]; single sc injection 1 mg
  incidence of adverse events (AEs), % of the subjects: 67%
SLE patients [3]; single sc injection 2.5 mg
  incidence of adverse events (AEs), % of the subjects: 80%
[4]; 0.5 mg group
  subjects with an increase in total SLEDAI-2K score of 0-3 points during the study: Two
[4]; 2.5 mg group
  subjects with an increase in total SLEDAI-2K score of 0-3 points during the study: 2 subjects
[4]; all treatment groups
  subjects reporting AEs during the 8-week follow-up period (off-drug): Approximately 50%
[4]; all treatment groups, decrease = improvement
  adjusted mean SLEDAI (AMS) score, change from baseline to termination visit: −0.1 to −1.5 points
[4]; any treatment group
  mean group total BILAG score during the study: No trend
[4]; sc twice weekly for 4 weeks, 0.5, 1 or 2.5 mg vs placebo
  overall incidence of AEs between all treatment groups: no prominent difference
[4]; sc twice weekly for 4 weeks, 0.5, 1 or 2.5 mg
  serious adverse events (SAE) throughout the study: No SAE was reported
[4]; sc twice weekly for 4 weeks, all treatment groups
  severity of injection site reactions: mild
SLE patients [5]; 0.5 mg Edratide
  post hoc analysis on BILAG responders, system improved: improvement mainly in the cutaneous system
SLE patients [5]; 0.5 mg Edratide (6 subjects), placebo 10.3%
  Serious Adverse Events (SAEs), % of subjects: 7.1%
SLE patients [5]; 1.0 mg dose group (10 subjects), placebo 10.3%
  Serious Adverse Events (SAEs), % of subjects: 11.5%
SLE patients [5]; 2.5 mg dose group (8 subjects), placebo 10.3%
  Serious Adverse Events (SAEs), % of subjects: 9.8%
SLE patients [5]; Edratide 0.5 mg (5 subjects)
  early withdrawal due to AE, % of subjects: 6.0%
SLE patients [5]; Edratide 0.5 mg group, most probably septic shock, classified as not related to study drug
  deaths during the study: One
SLE patients [5]; Edratide 0.5 mg sc
  AE incidence: 82.1%
SLE patients [5]; Edratide 0.5 mg, ITT, LOV vs baseline, placebo 22%, p=0.03
  BILAG substantial responders, % of subjects: 36%
SLE patients [5]; Edratide 0.5 mg, ITT, post hoc, n=14, placebo 29% (n=25), p=0.039
  subjects with a medicinal flare: 17%
SLE patients [5]; Edratide 0.5 mg, ITT, post hoc, p=0.039
  medicinal flare, OR vs placebo: 0.43
SLE patients [5]; Edratide 0.5 mg, ITT, p=0.03, not significant after multiplicity adjustment
  BILAG substantial response, odds ratio (OR) vs placebo: 2.09
SLE patients [5]; Edratide 0.5 mg, opposite trend for the physical score
  change in the SF-36 mental score compared to placebo: slightly better
SLE patients [5]; Edratide 1.0 mg (3 subjects)
  early withdrawal due to AE, % of subjects: 3.4%
SLE patients [5]; Edratide 1 mg sc
  AE incidence: 77%
SLE patients [5]; Edratide 1 mg, p=0.07 without correction for multiple comparison
  BILAG substantial responders, OR vs placebo: 1.85
SLE patients [5]; Edratide 2.5 mg (3 subjects)
  early withdrawal due to AE, % of subjects: 3.7%
SLE patients [5]; Edratide 2.5 mg sc
  AE incidence: 75.6%
SLE patients [5]; Edratide 0.5, 1 and 2.5 mg
  safety signal and dose response from the AEs analysis and additional safety data: no clear dose response and no significant safety signal
SLE patients [5]; Edratide vs placebo
  early terminations due to AEs vs placebo: more often on Edratide than on placebo
SLE patients [5]; ITT, n=26, placebo 20% (n=17), p=0.058, FIG. 4
  cSRI positive responders: 34%
SLE patients [5]; anti-DNA>30 IU at baseline, n=11, placebo 68% (n=21), p=0.05
  BILAG non-responders, seropositive patients: 42%
SLE patients [5]; anti-DNA>30 IU at baseline, placebo 26%, FIG. 2C
  BILAG substantial responders, seropositive patients: 46%
SLE patients [5]; any of the active treatment groups (0.5, 1, 2.5 mg)
  co-primary endpoints (change from baseline to LOV in SLEDAI 2K score; adjusted mean SLEDAI 2K) vs placebo: no differences
SLE patients [5]; change from baseline to LOV
  SF-36 mental or physical scores, differences between the treatment groups: No clinically or statistically significant differences
SLE patients [5]; mean baseline steroids dose 9-10 mg/day of prednisolone
  cumulative change in steroid dose throughout the study, differences between the treatment groups: No clinically or statistically significant differences
SLE patients [5]; no steroids at baseline, 0.5 mg Edratide, placebo 13%, p=0.05
  BILAG substantial responders, % of subjects: 54%
SLE patients [5]; overall, regardless of treatment
  mean reduction from baseline SLEDAI-2K score: about 35%
SLE patients [5]; pooled Edratide group, placebo 10.3%
  SAE incidence: 9.5%
SLE patients [5]; prednisolone dose <20 mg at baseline (pooled cohort of 292 subjects), placebo 19%, p=0.007, FIG. 2B
  BILAG substantial responders, % of subjects: 40%
SLE patients [5]; prednisolone dose <20 mg at baseline, p=0.007
  BILAG substantial response, OR vs placebo: 2.75

— US20200338195A1, “PHARMACEUTICAL COMPOSITIONS COMPRISING 0.25 MG DOSE OF SYNTHETIC HUMAN PEPTIDES FOR TREATING SYSTEMIC LUPUS ERYTHEMATOSUS” (priority 2016, published 2020)
